Patent US20240217989A1, “Heteroaryl Fluoroalkenes As DGK Inhibitors” (Incyte Corporation, priority 2022, published 2024)

How the values were obtained:
DGKα = target: T1, DGKα (Homo sapiens, UniProt P23743); assay: In vitro DGKα inhibition assay (ADP-Glo); type: biochemical; conditions: His-tagged human recombinant enzyme; 0.1 nM DGKα, 50 μM ATP, 20 μM DLG; 90 minute incubation; ADP-Glo luminescence
T1 construct: His; purchased Signal Chem D21-10BH
Protocol: (§1) The DGKα and DGKζ biochemical reactions were performed using His-tagged human recombinant enzymes (Signal Chem, DGKα, #D21-10BH; DGKζ, #D30-10H)) and DLG (Dilauroyl-sn-glycerol) lipid substrate (Signal Chem, #D430-59). ADP-Glo assay was performed using ADP-Glo™ kinase Assay kit (Promega, #V9104). The reactions were carried out in assay buffer containing 40 mM Tris, pH 7.5, 0.1% CHAPS, 0.1% Prionex, 40 mM NaCl, 5 mM MgCl2, 1 mM CaCl2, and 1 mM DTT. DGKα reactions contained 0.1 nM DGKα, 50 μM ATP, and 20 μM DLG. And DGKζ reactions contained 0.4 nM DGKζ, 30 μM ATP, and 20 μM DLG. For compound inhibition studies, 40 nL test compound in DMSO was added to wells of white polystyrene plates in 384-well (Greiner, #784075) or 1536-well format (Greiner, #782075). Compounds were added with top concentration of 2 mM with 11 point, 3-fold dilution series. Enzyme solution (contains 2× DGK enzyme concentration in 1× assay buffer) was added to the plate in 2 μL/well volume, followed by 2 μL/well of substrate solution (contains 2× concentration of ATP and DLG substrate in 1× assay buffer). Plates were then centrifuged for 1 min at 1200 RPM and sealed or lidded. For 4 μL reaction volume, test compounds were therefore diluted 100× to final top concentration of 20 μM. After 90 minute incubation, reactions were quenched by addition of 2 μL/well Promega ADP-Glo Reagent, followed by centrifugation and lidding. After 60 min incubation, 2 μL/well Promega Kinase Detection Reagent was added, plates centrifuged, and incubated for 30 min. Plates were then read using Luminescence method on BMG PHERAstar FSX plate reader. Percent inhibition was calculated and IC50s were determined using 4-parameter fit in Genedata Screener. Labcyte Echo acoustic dispenser was used for compound addition, and Formulatrix Tempest liquid handler was used for all reagent dispenses.

DGKζ = DGKζ (Homo sapiens, UniProt Q13574); assay: In vitro DGKζ inhibition assay (ADP-Glo); type: biochemical; conditions: His-tagged human recombinant enzyme; 0.4 nM DGKζ, 30 μM ATP, 20 μM DLG; 90 minute incubation; ADP-Glo luminescence
Protocol: as §1

T1 sequence (P23743 whole entry): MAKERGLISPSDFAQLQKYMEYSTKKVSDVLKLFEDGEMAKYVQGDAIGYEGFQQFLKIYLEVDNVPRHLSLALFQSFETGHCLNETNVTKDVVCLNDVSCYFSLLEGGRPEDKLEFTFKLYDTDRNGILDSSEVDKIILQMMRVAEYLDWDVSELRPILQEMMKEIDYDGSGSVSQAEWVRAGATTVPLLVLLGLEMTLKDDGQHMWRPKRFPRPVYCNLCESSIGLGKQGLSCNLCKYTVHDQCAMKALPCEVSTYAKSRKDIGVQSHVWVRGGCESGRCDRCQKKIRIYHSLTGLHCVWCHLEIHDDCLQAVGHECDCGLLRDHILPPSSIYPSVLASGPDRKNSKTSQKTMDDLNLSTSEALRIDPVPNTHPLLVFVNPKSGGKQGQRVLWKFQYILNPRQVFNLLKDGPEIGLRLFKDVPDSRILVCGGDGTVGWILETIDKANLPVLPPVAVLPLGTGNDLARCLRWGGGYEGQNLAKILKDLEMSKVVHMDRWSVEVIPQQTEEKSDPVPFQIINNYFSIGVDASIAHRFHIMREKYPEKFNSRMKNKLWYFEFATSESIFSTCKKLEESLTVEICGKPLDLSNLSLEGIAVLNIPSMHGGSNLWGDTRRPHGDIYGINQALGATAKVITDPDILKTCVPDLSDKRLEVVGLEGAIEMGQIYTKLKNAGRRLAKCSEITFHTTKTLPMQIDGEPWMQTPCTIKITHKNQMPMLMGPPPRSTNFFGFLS
Sequence of DGKζ (Q13574 whole entry): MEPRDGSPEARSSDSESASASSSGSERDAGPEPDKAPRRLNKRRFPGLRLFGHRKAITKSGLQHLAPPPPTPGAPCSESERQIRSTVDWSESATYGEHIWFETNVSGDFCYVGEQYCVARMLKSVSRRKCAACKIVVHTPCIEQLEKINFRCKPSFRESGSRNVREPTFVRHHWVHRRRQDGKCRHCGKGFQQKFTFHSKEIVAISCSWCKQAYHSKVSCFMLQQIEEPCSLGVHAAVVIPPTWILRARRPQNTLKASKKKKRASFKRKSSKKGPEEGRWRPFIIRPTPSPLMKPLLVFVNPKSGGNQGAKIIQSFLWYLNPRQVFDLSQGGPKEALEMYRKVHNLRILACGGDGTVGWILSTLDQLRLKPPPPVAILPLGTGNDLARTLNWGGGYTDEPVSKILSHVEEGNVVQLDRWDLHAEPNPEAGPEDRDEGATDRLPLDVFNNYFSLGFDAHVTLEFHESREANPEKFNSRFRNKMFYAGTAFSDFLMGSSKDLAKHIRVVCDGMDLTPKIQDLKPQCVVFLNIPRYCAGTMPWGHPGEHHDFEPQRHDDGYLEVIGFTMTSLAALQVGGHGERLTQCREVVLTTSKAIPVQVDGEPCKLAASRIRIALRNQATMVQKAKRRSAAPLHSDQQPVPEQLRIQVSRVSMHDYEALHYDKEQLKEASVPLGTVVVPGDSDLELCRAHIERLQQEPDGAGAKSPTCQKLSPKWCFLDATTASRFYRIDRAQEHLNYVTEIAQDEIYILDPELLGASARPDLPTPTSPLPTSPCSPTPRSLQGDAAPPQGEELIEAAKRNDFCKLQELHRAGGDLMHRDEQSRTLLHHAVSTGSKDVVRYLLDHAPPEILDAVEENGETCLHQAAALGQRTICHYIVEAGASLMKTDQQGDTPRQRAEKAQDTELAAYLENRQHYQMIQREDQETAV

Which IC50 (DGKα) does the source give for [2H]c1c([2H])c([2H])c(Oc2ccc(/C=C(\F)c3cncc(N4CCC(F)(F)C4)n3)c(N3CCCC4(CCN(CC)CC4)C3)c2C(F)(F)F)c([2H])c1[2H] [Example 22, (Z)-2-(6-(2-(6-(3,3-Difluoropyrrolidin-1-yl)pyrazin-2-yl)-2-fluorovinyl)-3-(phenoxy-d5)-2-(trifluoromethyl)phenyl)-9-ethyl-2,9-diazaspiro[5.5]undecane] here?
Its IC50 is no more than 20 nM.

And the IC50 (DGKζ)?
Its IC50 is no more than 20 nM.

What does the source list for F/C(=C\c1ccc(Oc2ccccc2F)c(C(F)(F)F)c1N1CCCC2(CCN(CC3CC3)CC2)C1)c1nccc(-c2ccnnc2)n1 [Example 39, (Z)-9-(Cyclopropylmethyl)-2-(6-(2-fluoro-2-(4-(pyridazin-4-yl)pyrimidin-2-yl)vinyl)-3-(2-fluorophenoxy)-2-(trifluoromethyl)phenyl)-2,9-diazaspiro[5.5]undecane]?
IC50 (DGKα): ≤ 20 nM; IC50 (DGKζ): ≤ 20 nM

Which IC50 (DGKα) does the source give for CCN1CCC2(CCCN(c3c(/C=C(\F)c4nccc(-c5ccnnc5)n4)ccc(Oc4ccccc4F)c3C(F)(F)F)C2)CC1 [Example 40, (Z)-9-Ethyl-2-(6-(2-fluoro-2-(4-(pyridazin-4-yl)pyrimidin-2-yl)vinyl)-3-(2-fluorophenoxy)-2-(trifluoromethyl)phenyl)-2,9-diazaspiro[5.5]undecane] here?
The IC50 was no more than 20 nM.

What about the IC50 (DGKζ) of the same molecule?
The IC50 was no more than 20 nM.

Which results are given for COc1cc(F)ccc1Oc1ccc(/C=C(\F)c2nccc(-c3ccnnc3)n2)c(N2CCC[C@@H](CN)C2)c1Cl [Example 6, (S,Z)-(1-(2-Chloro-6-(2-fluoro-2-(4-(pyridazin-4-yl)pyrimidin-2-yl)vinyl)-3-(4-fluoro-2-methoxyphenoxy)phenyl)piperidin-3-yl)methanamine]?
IC50 (DGKα): ≤ 20 nM; IC50 (DGKζ): ≤ 20 nM

With F/C(=C\c1ccc(OC2CCCCC2)c(C(F)(F)F)c1N1CCCC2(CCN(CC3CC3)CC2)C1)c1nccc(-c2ccnnc2)n1 [Example 50, (Z)-2-(3-(Cyclohexyloxy)-6-(2-fluoro-2-(4-(pyridazin-4-yl)pyrimidin-2-yl)vinyl)-2-(trifluoromethyl)phenyl)-9-(cyclopropylmethyl)-2,9-diazaspiro[5.5]undecane] as the molecule, how does the IC50 (DGKα) read?
The IC50 was no more than 20 nM.

What about the IC50 (DGKζ) of the same molecule?
Its IC50 is no more than 20 nM.

Which results are given for F/C(=C\c1ccc(Oc2cccc(F)c2F)c(C(F)(F)F)c1N1CCCC2(CCN(CC3CC3)CC2)C1)c1cncc(-c2cnsc2)n1 [Example 47, (Z)-4-(6-(2-(2-(9-(Cyclopropylmethyl)-2,9-diazaspiro[5.5]undecan-2-yl)-4-(2,3-difluorophenoxy)-3-(trifluoromethyl)phenyl)-1-fluorovinyl)pyrazin-2-yl)isothiazole]?
IC50 (DGKα): ≤ 20 nM; IC50 (DGKζ): ≤ 20 nM

With F/C(=C\c1ccc(OC2CCC2)c(C(F)(F)F)c1N1CCCC2(CCN(CC3CC3)CC2)C1)c1nccc(-c2ccnnc2)n1 [Example 52, (Z)-2-(3-Cyclobutoxy-6-(2-fluoro-2-(4-(pyridazin-4-yl)pyrimidin-2-yl)vinyl)-2-(trifluoromethyl)phenyl)-9-(cyclopropylmethyl)-2,9-diazaspiro[5.5]undecane] as the molecule, how does the IC50 (DGKα) read?
Its IC50 is no more than 20 nM.

What about the IC50 (DGKζ) of the same molecule?
The IC50 was no more than 20 nM.

How did the IC50 (DGKα) turn out when NC[C@@H]1CCCN(c2c(/C=C(\F)c3cn4ccnc4c(N4CC(F)(F)C4)n3)ccc(Oc3ccccc3F)c2C(F)(F)F)C1 [Example 2, (S,Z)-(1-(6-(2-(8-(3,3-Difluoroazetidin-1-yl)imidazo[1,2-a]pyrazin-6-yl)-2-fluorovinyl)-3-(2-fluorophenoxy)-2-(trifluoromethyl)phenyl)piperidin-3-yl)methanamine] was run?
The IC50 was no more than 20 nM.

What about the IC50 (DGKζ) of the same molecule?
Its IC50 is no more than 20 nM.

Which IC50 (DGKα) does the source give for F/C(=C\c1ccc(Oc2ccccc2)c(C(F)(F)F)c1N1CCOC2(CCNCC2)C1)c1cncc(-c2ccnnc2)n1 [Example 9, (Z)-4-(6-(2-Fluoro-2-(6-(pyridazin-4-yl)pyrazin-2-yl)vinyl)-3-phenoxy-2-(trifluoromethyl)phenyl)-1-oxa-4,9-diazaspiro[5.5]undecane] here?
Its IC50 is no more than 20 nM.

And the IC50 (DGKζ)?
The IC50 was no more than 20 nM.

Which results are given for F/C(=C\c1ccc(OC2CCCC2)c(C(F)(F)F)c1N1CCCC2(CCN(CC3CC3)CC2)C1)c1nccc(-c2ccnnc2)n1 [Example 51, (Z)-2-(3-(Cyclopentyloxy)-6-(2-fluoro-2-(4-(pyridazin-4-yl)pyrimidin-2-yl)vinyl)-2-(trifluoromethyl)phenyl)-9-(cyclopropylmethyl)-2,9-diazaspiro[5.5]undecane]?
IC50 (DGKα): ≤ 20 nM; IC50 (DGKζ): ≤ 20 nM

[2H]c1c([2H])c([2H])c(Oc2ccc(/C=C(\F)c3cncc(N4CCC(F)(F)C4)n3)c(N3CCCC4(CCN(CC5CC5)CC4)C3)c2C(F)(F)F)c([2H])c1[2H] [Example 21, (Z)-9-(Cyclopropylmethyl)-2-(6-(2-(6-(3,3-difluoropyrrolidin-1-yl)pyrazin-2-yl)-2-fluorovinyl)-3-(phenoxy-ds)-2-(trifluoromethyl)phenyl)-2,9-diazaspiro[5.5]undecane] was tested. Which IC50 (DGKα) did it give?
The IC50 was no more than 20 nM.

And the IC50 (DGKζ)?
Its IC50 is no more than 20 nM.

What does the source list for F/C(=C\c1ccc(Oc2ccc(F)cc2F)c(C(F)(F)F)c1N1CCCC2(CCN(CC3CC3)CC2)C1)c1cncc(-c2ccnnc2)n1 [Example 38, (Z)-9-(Cyclopropylmethyl)-2-(3-(2,4-difluorophenoxy)-6-(2-fluoro-2-(6-(pyridazin-4-yl)pyrazin-2-yl)vinyl)-2-(trifluoromethyl)phenyl)-2,9-diazaspiro[5.5]undecane]?
IC50 (DGKα): ≤ 20 nM; IC50 (DGKζ): ≤ 20 nM

F/C(=C\c1ccc(Oc2ccccc2)c(C(F)(F)F)c1N1CCCC2(CCN(CC3CC3)CC2)C1)c1cncc(-c2ccnnc2)n1 [Example 29, (Z)-9-(Cyclopropylmethyl)-2-(6-(2-fluoro-2-(6-(pyridazin-4-yl)pyrazin-2-yl)vinyl)-3-phenoxy-2-(trifluoromethyl)phenyl)-2,9-diazaspiro[5.5]undecane] was tested. Which IC50 (DGKα) did it give?
The IC50 was no more than 20 nM.

What about the IC50 (DGKζ) of the same molecule?
The IC50 was no more than 20 nM.

What does the source list for F/C(=C\c1ccc(Oc2ccccc2F)c(C(F)(F)F)c1N1CCCC2(CCN(CC3CC3)CC2)C1)c1cncc(-c2ccnnc2)n1 [Example 37, (Z)-9-(Cyclopropylmethyl)-2-(6-(2-fluoro-2-(6-(pyridazin-4-yl)pyrazin-2-yl)vinyl)-3-(2-fluorophenoxy)-2-(trifluoromethyl)phenyl)-2,9-diazaspiro[5.5]undecane]?
IC50 (DGKα): ≤ 20 nM; IC50 (DGKζ): ≤ 20 nM

[2H]c1c([2H])c([2H])c(Oc2ccc(/C=C(\F)c3cncc(N4CC(F)(F)C4)n3)c(N3CCCC4(CCN(CC)CC4)C3)c2C(F)(F)F)c([2H])c1[2H] [Example 18, (Z)-2-(6-(2-(6-(3,3-Difluoroazetidin-1-yl)pyrazin-2-yl)-2-fluorovinyl)-3-(phenoxy-d5)-2-(trifluoromethyl)phenyl)-9-ethyl-2,9-diazaspiro[5.5]undecane] was tested. Which IC50 (DGKα) did it give?
Its IC50 is no more than 20 nM.

And the IC50 (DGKζ)?
The IC50 was no more than 20 nM.

Which IC50 (DGKα) does the source give for CCN1CCC2(CCCN(c3c(/C=C(\F)c4cccc(-c5ccnnc5)n4)ccc(Oc4ncccc4F)c3C(F)(F)F)C2)CC1 [Example 33, (Z)-9-Ethyl-2-(6-(2-fluoro-2-(6-(pyridazin-4-yl)pyridin-2-yl)vinyl)-3-((3-fluoropyridin-2-yl)oxy)-2-(trifluoromethyl)phenyl)-2,9-diazaspiro[5.5]undecane] here?
The IC50 was no more than 20 nM.

And the IC50 (DGKζ)?
Its IC50 is no more than 20 nM.

How did the IC50 (DGKα) turn out when F/C(=C\c1ccc(Oc2ccccc2F)c(C(F)(F)F)c1N1CCCC2(CCN(CC3CC3)CC2)C1)c1nccc(-c2cnsc2)n1 [Example 55, (Z)-4-(2-(2-(2-(9-(Cyclopropylmethyl)-2,9-diazaspiro[5.5]undecan-2-yl)-4-(2-fluorophenoxy)-3-(trifluoromethyl)phenyl)-1-fluorovinyl)pyrimidin-4-yl)isothiazole] was run?
The IC50 was no more than 20 nM.

And the IC50 (DGKζ)?
Its IC50 is no more than 20 nM.

Which results are given for F/C(=C\c1ccc(Oc2ccccc2F)c(C(F)(F)F)c1N1CCCC2(CCN(CC3CC3)CC2)C1)c1cncc(N2CCC(F)(F)C2)n1 [Example 59, (Z)-9-(Cyclopropylmethyl)-2-(6-(2-(6-(3,3-difluoropyrrolidin-1-yl)pyrazin-2-yl)-2-fluorovinyl)-3-(2-fluorophenoxy)-2-(trifluoromethyl)phenyl)-2,9-diazaspiro[5.5]undecane]?
IC50 (DGKα): ≤ 20 nM; IC50 (DGKζ): ≤ 20 nM

Which results are given for F/C(=C\c1ccc(Oc2ccccc2)c(C(F)(F)F)c1N1CCCC2(CCN(CC3CC3)CC2)C1)c1cncc(N2CCC(F)(F)C2)n1 [Example 19, (Z)-9-(Cyclopropylmethyl)-2-(6-(2-(6-(3,3-difluoropyrrolidin-1-yl)pyrazin-2-yl)-2-fluorovinyl)-3-phenoxy-2-(trifluoromethyl)phenyl)-2,9-diazaspiro[5.5]undecane]?
IC50 (DGKα): ≤ 20 nM; IC50 (DGKζ): ≤ 20 nM

For CCN1CCC2(CC1)CN(c1c(/C=C(\F)c3nccc(-c4ccnnc4)n3)ccc(Oc3ccccc3F)c1C(F)(F)F)CCO2 [Example 41, (Z)-9-Ethyl-4-(6-(2-fluoro-2-(4-(pyridazin-4-yl)pyrimidin-2-yl)vinyl)-3-(2-fluorophenoxy)-2-(trifluoromethyl)phenyl)-1-oxa-4,9-diazaspiro[5.5]undecane], which IC50 (DGKα) is on record?
The IC50 was no more than 20 nM.

What about the IC50 (DGKζ) of the same molecule?
The IC50 was no more than 20 nM.
